The subject of one series is Hepatitis C virus. In words: microbe, parasite or virus in culture. The note with it: genotype 1b, Huh-7.
The next series concerns PBMC. The note with it: human.
The next series relates to Vero. The note with it: chlorocebus sabaeus.
A short description of a further series: in vitro. The note with it: human, HuH7 cells.
The subject of a further series is CCRF-CEM. The note with it: human.

Bounds are passed on as bounds.

As a reminder, the EC50 is the concentration that produces a half-maximal response. Lower therefore signals higher potency in that assay. What is called EC90 is the concentration needed for an effect of 90%. Read a high EC90 as a need for much substance. Regarding `COC(=O)N[C@H](C(=O)N1CCC[C@H]1c1ncc(-c2ccc(-c3ccc(-c4cnc([C@@H]5CCCN5C(=O)[C@@H](NC(=O)OC)C(C)C)[nH]4)cc3)cc2)[nH]1)C(C)C`, in the series on Hepatitis C virus, the response was half-maximal at 0.01 nM (EC50) and it took 0.03 nM to reach the 90% level (EC90).
Regarding `C=CC[C@H](NC(C)=O)C(=O)N1CCC[C@H]1c1ncc(-c2ccc(-c3ccccc3)cc2)[nH]1`, the CC50 with PBMC is 100 µM; in the series with Vero, 21 µM; in the series “in vitro” it was more than 1 µM; in the series with CCRF-CEM, 73 µM. Also, the EC50 with Hepatitis C virus was more than 1000 nM.
As for `COC(=O)N[C@H](C(=O)N1CCC[C@H]1c1ncc(-c2ccc(S(=O)(=O)c3ccccc3)cc2)[nH]1)C(C)C`, the CC50 with PBMC is more than 100 µM; in the series with Vero it was more than 100 µM; in “in vitro”, more than 1 µM; with CCRF-CEM, more than 100 µM. In the series on Hepatitis C virus, this compound registered an EC50 of more than 100 nM.
Take `COC(=O)N[C@H](C(=O)N1CCC[C@H]1c1ncc(-c2ccc(-c3ccc(C#N)cc3)cc2)[nH]1)C(C)C`: the CC50 was more than 100 µM in the series on PBMC, 33 µM with Vero, more than 1 µM in “in vitro” and 98 µM in the series on CCRF-CEM. This compound came in with an EC50 in the series with Hepatitis C virus of more than 100 nM.
For `COC(=O)N[C@H](C(=O)N1CCC[C@H]1c1ncc(-c2ccc(-c3ccc(C)cc3)cc2)[nH]1)C(C)C`, in that order: 90 µM, 14 µM, more than 1 µM, 16 µM and more than 100 nM.
With `COC(=O)N[C@H](C(=O)N1CCC[C@H]1c1ncc(-c2ccc(-c3ccc(OC)cc3)cc2)[nH]1)C(C)C`, the CC50 was 85 µM in the series on PBMC, 13 µM in the series with Vero, more than 1 µM in the series “in vitro” and 30 µM in the series on CCRF-CEM. This compound also registered an EC50 in the series on Hepatitis C virus of more than 100 nM.
`COC(=O)N[C@H](C(=O)N1CCC[C@H]1c1ncc(-c2ccc(-c3ccc(C(N)=O)cc3)cc2)[nH]1)C(C)C`: the CC50 is more than 100 µM in the series with PBMC, more than 100 µM with Vero, more than 1 µM in the series “in vitro” and more than 100 µM in the series on CCRF-CEM. This compound registered an EC50 in the series on Hepatitis C virus of 21 nM. In the series with Hepatitis C virus, this compound yielded an EC90 of 76 nM.
In the case of `COC(=O)N[C@H](C(=O)N1CCC[C@H]1c1ncc(-c2ccc(-c3ccc(C(=O)OC)cc3)cc2)[nH]1)C(C)C`, the CC50 with PBMC is 14 µM; in the series on Vero, 17 µM; in “in vitro”, more than 1 µM; with CCRF-CEM it was 61 µM. In addition, in the series on Hepatitis C virus, the EC50 was more than 100 nM.
Take `COC(=O)N[C@H](C(=O)N1CCC[C@H]1c1ncc(-c2ccc(-c3ccc(S(C)(=O)=O)cc3)cc2)[nH]1)C(C)C`: the CC50 in the series with PBMC was more than 100 µM; with Vero it was 6 µM; in the series “in vitro” it was more than 1 µM; in the series on CCRF-CEM, 54 µM. This compound also yielded an EC50 in the series with Hepatitis C virus of more than 100 nM.
As to `COC(=O)N[C@H](C(=O)N1CCC[C@H]1c1ncc(-c2ccc(-c3ccc(N=[N+]=[N-])cc3)cc2)[nH]1)C(C)C`, the CC50 in the series with PBMC was 37 µM; in the series on Vero it was 11 µM; in the series “in vitro”, more than 1 µM; in the series with CCRF-CEM, 11 µM. The compound also returned an EC50 in the series with Hepatitis C virus of more than 100 nM.
In the case of `COC(=O)N[C@H](C(=O)N1CCC[C@H]1c1nc(Cl)c(-c2ccc(-c3ccc(C(F)(F)F)cc3)cc2)[nH]1)C(C)C`, the CC50 in the series with PBMC is 11 µM; in the series on Vero, 10 µM; in “in vitro”, more than 1 µM; in the series on CCRF-CEM, 10 µM. The compound also came in with an EC50 in the series on Hepatitis C virus of more than 100 nM.
For the compound `COC(=O)N[C@H](C(=O)N1CCC[C@H]1c1ncc(-c2ccc(N)cc2)[nH]1)C(C)C`, the CC50 in the series on PBMC is more than 100 µM; with Vero, more than 100 µM; in the series “in vitro”, more than 1 µM; in the series on CCRF-CEM, more than 100 µM. In the series on Hepatitis C virus, this compound gave an EC50 of 200 nM. In the series on Hepatitis C virus, this compound gave an EC90 of 300 nM.
On to `COC(=O)Nc1ccc(-c2cnc([C@@H]3CCCN3C(=O)[C@@H](NC(=O)OC)C(C)C)[nH]2)cc1`, for which the CC50 in the series on PBMC is more than 100 µM; with Vero, more than 100 µM; in “in vitro” it was more than 1 µM; with CCRF-CEM, more than 100 µM. In the series with Hepatitis C virus, this compound returned an EC50 of more than 100 nM.

The values above are taken from ChEMBL document CHEMBL2346553, “Synthesis and evaluation of non-dimeric HCV NS5A inhibitors” (Bioorg Med Chem Lett, 2013).
